One assay deals with neutral cathepsin. Description: Cathepsin activity, UMR-106 osteosarcoma cells. It counts as cell-based. The note with it: Table 6; read-out: IC50 Neutral Cathepsin, Rat UMR-106 Bone Osteosarcoma.
Assay [1] has as its system trypsin. Description: Trypsin activity, UMR-106 osteosarcoma cells. It counts as cell-based. The settings on record: Table 6; read-out: IC50 Trypsin, Rat UMR-106 Bone Osteosarcoma.
For another assay, the target named is acid phosphatase. In words: Acid phosphatase activity, mouse macrophages. It counts as cell-based, mouse (J774 macrophages). The settings on record: Table 3; read-out: IC50 Acid Phosphatase, Mouse Macrophage.
The test system of assay [2] is elastase. Description: Elastase activity, UMR-106 osteosarcoma cells. Type of assay: cell-based. The settings on record: Table 6; read-out: IC50 Elastase, Rat UMR-106 Bone Osteosarcoma.
Assay [3] has as its target prostaglandin cyclooxygenase. Description: Prostaglandin cyclooxygenase activity, macrophages. Type of assay: cell-based, mouse (J774 macrophages). The settings on record: Table 7.
For assay [4], the system named is trypsin. In words: Trypsin proteolytic activity, mouse macrophages. It counts as cell-based, mouse (J774 macrophages). The settings on record: Table 5; read-out: IC50 Trypsin, Mouse Macrophage.
Assay [5] has as its target elastase. In words: Elastase activity, mouse macrophages. Type of assay: cell-based, mouse (J774 macrophages). The settings on record: Table 5; read-out: IC50 Elastase, Mouse Macrophage.
The test system of a further assay is cathepsin. In words: Cathepsin activity, mouse macrophages. It counts as cell-based, mouse (J774 macrophages). The note with it: Table 3; read-out: IC50 Cathepsin, Mouse Macrophage.
Assay [6] has as its system acetic acid induced stretch reflex. In words: Local analgesic screen (acetic acid writhing). Type of assay: in vivo, CF1 mice. The settings on record: for Mice Writhing Reflex: 8 mg/kg I.P., Table 2; for reduction of the reflex action: mice, acetic acid induced local pain, 8 mg/kg.
Assay [7] relates to tail flick response to heat. In words: Hot plate tail flick screen. It counts as in vivo, CF1 male mice. The note with it: for Mice Tail Flick: 8 mg/kg I.P., hot plate, Table 2; for tail flick assay time: mice, 8 mg/kg. (In general: In hot-plate and tail-flick tests a longer latency is read as antinociception.)
Assay [8] relates to carrageenan-induced inflammation of paw. In words: Carrageenan-induced paw edema, rats.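 Also: paw weight increase as percent of control rats.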 It counts as in vivo, Sprague Dawley male rats. The note with it: 8 mg/kg x 2, I.P., Table 2.
In assay [9] the test system is carrageenan-induced pleural fluid. In words: Anti-pleurisy screen.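 As to Rat Pleurisy: Pleural fluid volume as percent of control rats.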 The note with it: for pleurisy edema in rats: 8 mg/kg; for Rat Pleurisy: rats, 8 mg/kg I.P., 1 h before and 3 h after carrageenan, Table 2. It counts as in vivo, Sprague Dawley male rats.
A further assay deals with aryl sulphatase. In words: Aryl sulfatase activity, mouse macrophages. It counts as cell-based, mouse (J774 macrophages). The note with it: Table 3; read-out: IC50 Aryl Sulfatase, Mouse Macrophage.
The subject of assay [10] is adjuvant (M. butyricum) arthritis. In words: Chronic adjuvant arthritic screen. The settings on record: rats; for activity in chronic arthritis screen / reduction of pannus: 8 mg/kg/day; for Rat Chronic Arthritis: 8 mg/kg/day I.P., Day 3 to Day 21, Table 2. It counts as in vivo.
Assay [11] concerns prostaglandin cyclooxygenase. In words: Prostaglandin cyclooxygenase activity, Be Sal cells. It counts as cell-based, human (Be Sal osteofibrolytic cells). The settings on record: Table 7; read-out: IC50 Prostaglandin Cyclooxygenase, Be Sal Osteofibro.
Assay [12] concerns the target T1, prostaglandin cyclooxygenase (Bos taurus, UniProt O62664).
T1 construct: purified commercial prostaglandin synthetase from bovine seminal vesicles (Miles Research Products); purchased Miles Research Products; host or cells: bovine seminal vesicles (tissue preparation)
T1 sequence (O62664 25-600): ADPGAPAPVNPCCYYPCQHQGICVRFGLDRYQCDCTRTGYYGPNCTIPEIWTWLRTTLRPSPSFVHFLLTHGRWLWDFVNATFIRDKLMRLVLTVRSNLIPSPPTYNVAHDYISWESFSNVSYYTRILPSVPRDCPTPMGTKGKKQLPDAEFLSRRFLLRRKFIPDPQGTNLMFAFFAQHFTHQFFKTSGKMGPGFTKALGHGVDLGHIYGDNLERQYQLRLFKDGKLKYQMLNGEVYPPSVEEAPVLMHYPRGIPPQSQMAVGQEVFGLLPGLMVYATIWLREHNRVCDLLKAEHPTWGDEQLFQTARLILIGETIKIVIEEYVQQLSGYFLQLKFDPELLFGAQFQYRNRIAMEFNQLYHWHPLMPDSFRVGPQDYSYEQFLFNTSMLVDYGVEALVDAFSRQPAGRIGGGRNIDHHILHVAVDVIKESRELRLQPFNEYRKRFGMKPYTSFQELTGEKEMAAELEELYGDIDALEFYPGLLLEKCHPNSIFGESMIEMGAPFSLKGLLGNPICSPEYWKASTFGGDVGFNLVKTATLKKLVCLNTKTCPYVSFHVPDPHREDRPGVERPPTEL
In words: Prostaglandin synthetase from bovine seminal vesicles. It counts as biochemical. The settings on record: Table 7; read-out: IC50 Prostaglandin Cyclooxygenase, Beef Seminal Vesicle.

Assay [13] concerns carrageenan-induced inflammation of hind foot. Description: Carrageenan-induced foot edema, mice. It counts as in vivo, CF1 male mice. The note with it: for reduction of induced edema: mice, 8 mg/kg x 2, I.P., carrageenan. A general note: Carrageenan injected into the paw causes an acute inflammation.

Consider `[BH3-][NH2+]C(C)(C)C` [Compound 1], for which the IC50 in the assay with neutral cathepsin stood at 4.67 µM; in the assay with trypsin [1], 7.74 µM; on acid phosphatase it was 8.08 µM; in the assay on elastase [2], 9.26 µM; in assay [3], 4.19 µM; with trypsin [4] it was 2.09 µM. For the same molecule, the IC50 at elastase [5] came to 0.22 µM; in the assay on cathepsin it was 4.62 µM. Moreover, in assay [6], the “Mice Writhing Reflex” value is 19 % of control. The “reduction of the reflex action” value in [6] is on record as 80%.

As to `C[NH2+][BH2-]C(=O)O` [Compound 2], the IC50 in the assay on neutral cathepsin came out at 5.82 µM; in the assay with trypsin [1], 9.89 µM; on acid phosphatase it was 0.9 µM; in the assay with elastase [2] it was 8.94 µM; in assay [3], 3.5 µM; in the assay with trypsin [4], 2.34 µM. The results for the IC50 at elastase [5], in the assay on cathepsin and on aryl sulphatase were 2.32 µM, 9.45 µM and 8.3 µM, respectively. Also, the “Mice Tail Flick” value in [7] is 147 % of control. The “tail flick assay time” value in [7] is on record as “increased”. Moreover, the “Rat Inflammatory” value in [8] is 70 % of control. For the same molecule, the “pleurisy edema in rats” value in assay [9] is reported as “reduced significantly”. For the same molecule, the “Rat Pleurisy” value in assay [9] was 61 % of control. Besides, the “Mice Writhing Reflex” value in assay [6] was 31 % of control. The “reduction of the reflex action” value in assay [6] was “at least 45%”. For the same molecule, the “activity in chronic arthritis screen” value in assay [10] is recorded as “significantly active”. Also, the “Rat Chronic Arthritis” value in [10] was 53 % of control.

Turning to `C[N+](C)([BH2-]C(=O)O)CC[N+](C)(C)[BH2-]C(=O)O` [Compound 7], the IC50 worked out at 3.32 µM on acid phosphatase; 1.85 µM in assay [3]; 2.33 µM in the assay on trypsin [4]; 2.76 µM at elastase [5]; 8.37 µM in the assay with cathepsin. Moreover, the “Mice Writhing Reflex” value in assay [6] is listed as 55 % of control. The “reduction of the reflex action” value in assay [6] was “at least 45%”. Besides, the reduction of pannus result in [10] was “greater than 75%”. Besides, the “Rat Chronic Arthritis” value in [10] is on record as 24 % of control.

On to `CCOC(=O)[BH2-][NH+](C)C` [Compound 20], for which the IC50 in the assay with neutral cathepsin was 6.62 µM; with trypsin [1], 9.18 µM; on acid phosphatase it was 1.12 µM; in the assay with elastase [2], 10.3 µM; in the assay on trypsin [4], 2.02 µM; at elastase [5], 3.28 µM. In addition, the IC50 is 3.94 µM with cathepsin and 9.27 µM at aryl sulphatase. The “pleurisy edema in rats” value in [9] is “reduced significantly”. The “Rat Pleurisy” value in [9] is reported as 61 % of control. Further, the “reduction of the reflex action” value in assay [6] is listed as “at least 45%”. Besides, in assay [10], the reduction of pannus entry is listed as “greater than 75%”. In addition, the “Rat Chronic Arthritis” value in [10] is reported as 13 % of control.

For the molecule `CCCCCCCCCCCCCCCC[N+](C)(C)[BH2-]C#N` [Compound 35], the IC50 with neutral cathepsin turned out to be 6.31 µM; in the assay on trypsin [1] it was 7.28 µM; on acid phosphatase it was 0.33 µM; in the assay with elastase [2], 9.19 µM; in the assay on trypsin [4] it was 2.69 µM; at elastase [5], 2.75 µM. The IC50 in the assay with cathepsin came to 4.97 µM; on aryl sulphatase it was 7.16 µM. In addition, in [6], the “Mice Writhing Reflex” value is 16 % of control. For the same molecule, in assay [6], the “reduction of the reflex action” value is reported as 80%.

Regarding `C[N+](C)(C)[BH2-]C(C#N)c1ccccc1` (stereo not drawn) [Compound 46], the “Mice Tail Flick” value in assay [7] is reported as 191 % of control. Also, the “tail flick assay time” value in assay [7] was “increased”. Also, the IC50 on acid phosphatase was 7.72 µM; in assay [11], 2.33 µM; in [3], 6.59 µM; in the assay with trypsin [4] it was 2.4 µM; on elastase [5] it was 5.21 µM; in assay [12], 0.71 µM. For the same molecule, the figures for the 50% inhibitory concentration (IC50) in the assay on cathepsin and on aryl sulphatase were 2.57 µM and 3.4 µM, respectively. Further, the “Mice Writhing Reflex” value in assay [6] is reported as 46 % of control. Also, the “reduction of the reflex action” value in assay [6] is recorded as “at least 45%”.

Take `CC[N+]#C[BH2-][N+](C)(C)C.F[B-](F)(F)F` [Compound 74]: the IC50 in the assay with neutral cathepsin stood at 6.55 µM; in the assay with trypsin [1], 10.5 µM; at acid phosphatase, 1.31 µM; in the assay on elastase [2], 10 µM; in assay [3], 1.52 µM; in the assay on trypsin [4] it was 1.83 µM. Moreover, the IC50 at elastase [5] worked out at 2.32 µM; in the assay with cathepsin it was 9.13 µM; on aryl sulphatase it was 6.03 µM. Besides, in assay [8], the “Rat Inflammatory” value is recorded as 81 % of control. Moreover, the “Mice Writhing Reflex” value in assay [6] is given as 40 % of control. Also, the “reduction of the reflex action” value in assay [6] was “at least 45%”. Moreover, the “reduction of induced edema” value in [13] was “at least 40%”.

Take `C[N+](C)(C)[BH2-]C(=O)NO.Cl` [Compound 77]: the “Mice Tail Flick” value in [7] is on record as 139 % of control. The IC50 on acid phosphatase is 6.59 µM; in assay [11], 1.09 µM; in assay [3], 7.72 µM; in the assay on trypsin [4], 2.14 µM; on elastase [5], 1.49 µM; with cathepsin, 5.13 µM. Besides, the IC50 on aryl sulphatase came to 1.4 µM. Moreover, the “Mice Writhing Reflex” value in assay [6] is 41 % of control. Also, the “reduction of the reflex action” value in [6] was “at least 45%”.

For the molecule `[BH3-][NH+]1CCOCC1` [Compound 78], the IC50 at acid phosphatase came out at 3.18 µM; in assay [3], 1.47 µM; with trypsin [4], 2.39 µM; at elastase [5], 5.94 µM; in the assay on cathepsin, 0.76 µM. Also, the “Rat Inflammatory” value in assay [8] is recorded as 83 % of control. For the same molecule, in assay [6], the “Mice Writhing Reflex” value is given as 15 % of control. The “reduction of the reflex action” value in assay [6] is reported as 80%. In addition, the “activity in chronic arthritis screen” value in [10] is reported as “significantly active”. The “Rat Chronic Arthritis” value in [10] is reported as 33 % of control. For the same molecule, the “reduction of induced edema” value in assay [13] is given as 45%.

`O=C(O)[BH2-][NH+]1CCOCC1` [Compound 83]: the IC50 in the assay on neutral cathepsin came out at 5.41 µM; in the assay on trypsin [1], 9.89 µM; at acid phosphatase, 0.16 µM; with elastase [2], 8.09 µM; in the assay on trypsin [4], 2.37 µM; on elastase [5], 0.96 µM. The IC50 is 1.76 µM in the assay with cathepsin and 7.59 µM on aryl sulphatase. Besides, the “reduction of induced edema” value in [13] is reported as “at least 30%”.

For the molecule `COc1ccc2c(c1)c(CC(=O)O)c(C)n2C(=O)c1ccc(Cl)cc1` [Indomethacin, indomethacin, reference compound], in assay [8], the “Rat Inflammatory” value was 78 % of control. In addition, the “Rat Pleurisy” value in [9] is reported as 12 % of control. In assay [6], the “Mice Writhing Reflex” value was 43 % of control. Further, in [10], the “Rat Chronic Arthritis” value is on record as 55 % of control. The “inhibition of induced inflammation” value in assay [13] (standards at their therapeutic dose (indomethacin 8 mg/kg x 2, pentoxifylline and phenylbutazone 50 mg/kg x 2)) stood at 26%.

By IC50 is commonly meant the concentration needed to halve the response being measured.

The values above are taken from publication PMC2364952, “The Anti-Inflammatory Activity of Boron Derivatives in Rodents” (Metal-Based Drugs, 1995).
